Data reported in US6525001B1, “Substituted pyrimidine and pyridine herbicides” (Mid-American Commercialization Corporation, priority 1997, dated 2003).

Key:
Format in all cases: in vivo
[1] = test system: bedstraw (Galium aparine); experiment: Test B pre-/postemergence; design: key: 0 is no effect; 10 is complete control; details: for Bedstraw plant response rating: Preemergence
In short: (§1)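 Response scores run from 0, meaning no effect, to 10, meaning complete control, assigned by eye relative to controls twelve to sixteen days after spraying. Treatment was both preemergence on planted seed and postemergence on plants at the 1- to 4-leaf stage.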

[2] = test system: blackgrass (Alopecurus myosuroides); experiment: Test B pre-/postemergence; design: key: 0 is no effect; 10 is complete control; details: for Blackgrass plant response rating: Preemergence
In short: as §1

[3] = test system: broadleaf signalgrass (Brachiaria decumbens); experiment: Test B pre-/postemergence; design: key: 0 is no effect; 10 is complete control; details: for B. signalgrass plant response rating: Preemergence
In short: as §1

[4] = test system: cocklebur (Xanthium strumarium); experiment: Test B pre-/postemergence; design: key: 0 is no effect; 10 is complete control; details: for Cocklebur plant response rating: Preemergence
In short: as §1

corn (Zea mays) = experiment: Test B pre-/postemergence; design: key: 0 is no effect; 10 is complete control; details: for Corn plant response rating: Preemergence
In short: as §1

[5] = test system: crabgrass (Digitaria sanguinalis); experiment: Test B pre-/postemergence; design: key: 0 is no effect; 10 is complete control; details: for Crabgrass plant response rating: Preemergence
In short: as §1

[6] = test system: giant foxtail (Setaria faberii); experiment: Test B pre-/postemergence; design: key: 0 is no effect; 10 is complete control
In short: as §1

[7] = test system: momingglory (Ipomoea hederacea); experiment: Test B pre-/postemergence; design: key: 0 is no effect; 10 is complete control
In short: as §1

[8] = test system: pigweed (Amaranthus retroflexus); experiment: Test B pre-/postemergence; design: key: 0 is no effect; 10 is complete control
In short: as §1

[9] = test system: purple nutsedge (Cyperus rotundus); experiment: Test B pre-/postemergence; design: key: 0 is no effect; 10 is complete control
In short: as §1

rape (Brassica napus) = experiment: Test B pre-/postemergence; design: key: 0 is no effect; 10 is complete control
In short: as §1

soybean (Glycine max) = experiment: Test B pre-/postemergence; design: key: 0 is no effect; 10 is complete control
In short: as §1

[10] = test system: sugar beet (Beta vulgaris); experiment: Test B pre-/postemergence; design: key: 0 is no effect; 10 is complete control
In short: as §1

[11] = test system: velvetleaf (Abutilon theophrasti); experiment: Test B pre-/postemergence; design: key: 0 is no effect; 10 is complete control
In short: as §1

[12] = test system: wheat (Triticum aestivum); experiment: Test B pre-/postemergence; design: key: 0 is no effect; 10 is complete control
In short: as §1

wild oat (Avena fatua) = experiment: Test B pre-/postemergence; design: key: 0 is no effect; 10 is complete control
In short: as §1

[13] = test system: bamyardgrass (Echinochloa crus-galli); experiment: Test B flood test
In short: (§2)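 Each value is a visual injury score relative to controls, with 10 meaning complete control and 0 no effect. Evaluation took place twelve to sixteen days after the 2-leaf-stage plants were treated and kept in the greenhouse.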

[14] = test system: duck salad (Heteranthera limosa); experiment: Test B flood test
In short: as §2

rice (Oryza sativa) = experiment: Test B flood test
In short: as §2

[15] = test system: smallflower flatsedge (Cyperus difformis); experiment: Test B flood test
In short: as §2

[16] = Rate 250 g/ha, Postemergence (so in the source)
[17] = Rate 62 g/ha, Postemergence (flood test)
[18] = Rate 125 g/ha, Postemergence, flood test
[19] = Rate 250 g/ha, Postemergence (flood test species)
[20] = Rate 500 g/ha, Postemergence (flood test species)
[21] = Rate 125 g/ha, Postemergence section (flood test species)

For Cc1cnc(-c2ccc(C(F)(F)F)cc2)nc1Cc1cccc(C#N)c1 [Compound 32], the “Plant response rating, Bedstraw” value ([1]; Rate 62 g/ha, Postemergence) was 6, the “Bedstraw plant response rating” value ([1]; Rate 62 g/ha) was 3 and the “Plant response rating, Bedstraw” value ([1]; Rate 125 g/ha, Postemergence) was 6. For the same compound, the “Bedstraw plant response rating” value ([1]; Rate 125 g/ha) was 8, the “Plant response rating, Bedstraw” value ([1]; Rate 250 g/ha, Postemergence) was 10 and the “Plant response rating, Bedstraw” value [1, 16] was 10. The “Plant response rating, Blackgrass” value ([2]; Rate 62 g/ha, Postemergence) was 1, the “Blackgrass plant response rating” value ([2]; Rate 62 g/ha) was 1 and the “Plant response rating, Blackgrass” value ([2]; Rate 125 g/ha, Postemergence) was 2. For the same compound, the “Blackgrass plant response rating” value ([2]; Rate 125 g/ha) was 2, the “Plant response rating, Blackgrass” value ([2]; Rate 250 g/ha, Postemergence) was 5 and the “Plant response rating, Blackgrass” value [2, 16] was 4. The “Plant response rating, B. signalgrass” value ([3]; Rate 62 g/ha, Postemergence) was 1, the “B. signalgrass plant response rating” value ([3]; Rate 62 g/ha) was 2 and the “Plant response rating, B. signalgrass” value ([3]; Rate 125 g/ha, Postemergence) was 2. The “B. signalgrass plant response rating” value ([3]; Rate 125 g/ha) was 6, the “Plant response rating, B. signalgrass” value ([3]; Rate 250 g/ha, Postemergence) was 2 and the “Plant response rating, B. signalgrass” value ([3]; Rate 250 g/ha, Postemergence as printed in head r139 (second section for compounds 26-50)) was 7. The “Plant response rating, Cocklebur” value ([4]; Rate 62 g/ha, Postemergence) was 8, the “Cocklebur plant response rating” value ([4]; Rate 62 g/ha) was 0 and the “Plant response rating, Cocklebur” value ([4]; Rate 125 g/ha, Postemergence) was 8. The “Cocklebur plant response rating” value ([4]; Rate 125 g/ha) was 0, the “Plant response rating, Cocklebur” value ([4]; Rate 250 g/ha, Postemergence) was 9 and the “Plant response rating, Cocklebur” value [4, 16] was 0. The “Plant response rating, Corn” value (corn (Zea mays); Rate 62 g/ha, Postemergence) was 1, the “Corn plant response rating” value (corn (Zea mays); Rate 62 g/ha) was 0 and the “Plant response rating, Corn” value (corn (Zea mays); Rate 125 g/ha, Postemergence) was 1. For the same compound, the “Corn plant response rating” value (corn (Zea mays); Rate 125 g/ha) was 0, the “Plant response rating, Corn” value (corn (Zea mays); Rate 250 g/ha, Postemergence) was 1 and the “Plant response rating, Corn” value (corn (Zea mays); [16]) was 0. The “Plant response rating, Crabgrass” value ([5]; Rate 62 g/ha, Postemergence) was 1, the “Crabgrass plant response rating” value ([5]; Rate 62 g/ha) was 1 and the “Plant response rating, Crabgrass” value ([5]; Rate 125 g/ha, Postemergence) was 2. For the same compound, the “Crabgrass plant response rating” value ([5]; Rate 125 g/ha) was 1, the “Plant response rating, Crabgrass” value ([5]; Rate 250 g/ha, Postemergence) was 2 and the “Plant response rating, Crabgrass” value [5, 16] was 3. For the same compound, the “Plant response rating, Giant foxtail” value ([6]; Rate 62 g/ha, Postemergence) was 1, the “Giant foxtail plant response rating” value ([6]; Rate 62 g/ha, Preemergence) was 1 and the “Giant foxtail plant response rating” value ([6]; Rate 125 g/ha, Postemergence) was 1. For the same compound, the “Giant foxtail plant response rating” value ([6]; Rate 125 g/ha, Preemergence) was 2, the “Plant response rating, Giant foxtail” value ([6]; Rate 250 g/ha, Postemergence) was 2 and the “Plant response rating, Giant foxtail” value [6, 16] was 5. For the same compound, the “Plant response rating, Morningglory” value ([7]; Rate 62 g/ha, Postemergence) was 7, the “Morningglory plant response rating” value ([7]; Rate 62 g/ha, Preemergence) was 1 and the “Morningglory plant response rating” value ([7]; Rate 125 g/ha, Postemergence) was 8. For the same compound, the “Morningglory plant response rating” value ([7]; Rate 125 g/ha, Preemergence) was 2, the “Plant response rating, Morningglory” value ([7]; Rate 250 g/ha, Postemergence) was 10 and the “Plant response rating, Morningglory” value [7, 16] was 3. The “Plant response rating, Redroot pigweed” value ([8]; Rate 62 g/ha, Postemergence) was 6, the “Redroot pigweed plant response rating” value ([8]; Rate 62 g/ha, Preemergence) was 8 and the “Redroot pigweed plant response rating” value ([8]; Rate 125 g/ha, Postemergence) was 9. For the same compound, the “Redroot pigweed plant response rating” value ([8]; Rate 125 g/ha, Preemergence) was 10, the “Plant response rating, Redroot pigweed” value ([8]; Rate 250 g/ha, Postemergence) was 9 and the “Plant response rating, Redroot pigweed” value [8, 16] was 10. For the same compound, the “Plant response rating, Nutsedge” value ([9]; Rate 62 g/ha, Postemergence) was 0, the “Nutsedge plant response rating” value ([9]; Rate 62 g/ha, Preemergence) was 0 and the “Nutsedge plant response rating” value ([9]; Rate 125 g/ha, Postemergence) was 0. The “Nutsedge plant response rating” value ([9]; Rate 125 g/ha, Preemergence) was 0, the “Plant response rating, Nutsedge” value ([9]; Rate 250 g/ha, Postemergence) was 1 and the “Plant response rating, Nutsedge” value [9, 16] was 0. The “Plant response rating, Rape” value (rape (Brassica napus); Rate 62 g/ha, Postemergence) was 8, the “Rape plant response rating” value (rape (Brassica napus); Rate 62 g/ha, Preemergence) was 2 and the “Rape plant response rating” value (rape (Brassica napus); Rate 125 g/ha, Postemergence) was 8. The “Rape plant response rating” value (rape (Brassica napus); Rate 125 g/ha, Preemergence) was 10, the “Plant response rating, Rape” value (rape (Brassica napus); Rate 250 g/ha, Postemergence) was 8 and the “Plant response rating, Rape” value (rape (Brassica napus); [16]) was 10. The “Plant response rating, Soybean” value (soybean (Glycine max); Rate 62 g/ha, Postemergence) was 4, the “Soybean plant response rating” value (soybean (Glycine max); Rate 62 g/ha, Preemergence) was 0 and the “Soybean plant response rating” value (soybean (Glycine max); Rate 125 g/ha, Postemergence) was 5. The “Plant response rating, Soybean” value (soybean (Glycine max); Rate 125 g/ha, Preemergence) was 0, the “Plant response rating, Soybean” value (soybean (Glycine max); Rate 250 g/ha, Postemergence) was 6 and the “Plant response rating, Soybean” value (soybean (Glycine max); [16]) was 1. The “Plant response rating, Sugarbeets” value ([10]; Rate 62 g/ha, Postemergence) was 9, the “Sugarbeets plant response rating” value ([10]; Rate 62 g/ha, Preemergence) was 8 and the “Sugarbeets plant response rating” value ([10]; Rate 125 g/ha, Postemergence) was 10. For the same compound, the “Plant response rating, Sugarbeets” value ([10]; Rate 125 g/ha, Preemergence) was 10, the “Plant response rating, Sugarbeets” value ([10]; Rate 250 g/ha, Postemergence) was 10 and the “Plant response rating, Sugarbeets” value [10, 16] was 10. The “Plant response rating, Velvetleaf” value ([11]; Rate 62 g/ha, Postemergence) was 4, the “Velvetleaf plant response rating” value ([11]; Rate 62 g/ha, Preemergence) was 6 and the “Velvetleaf plant response rating” value ([11]; Rate 125 g/ha, Postemergence) was 8. For the same compound, the “Plant response rating, Velvetleaf” value ([11]; Rate 125 g/ha, Preemergence) was 9, the “Plant response rating, Velvetleaf” value ([11]; Rate 250 g/ha, Postemergence) was 9 and the “Plant response rating, Velvetleaf” value [11, 16] was 10. For the same compound, the “Wheat plant response rating” value ([12]; Rate 62 g/ha, Postemergence) was 1, the “Wheat plant response rating” value ([12]; Rate 62 g/ha, Preemergence) was 0 and the “Wheat plant response rating” value ([12]; Rate 125 g/ha, Postemergence) was 2. The “Plant response rating, Wheat” value ([12]; Rate 125 g/ha, Preemergence) was 0, the “Plant response rating, Wheat” value ([12]; Rate 250 g/ha, Postemergence) was 2 and the “Plant response rating, Wheat” value [12, 16] was 0. For the same compound, the “Wild oats plant response rating” value (wild oat (Avena fatua); Rate 62 g/ha, Postemergence) was 1, the “Wild oats plant response rating” value (wild oat (Avena fatua); Rate 62 g/ha, Preemergence) was 2 and the “Wild oats plant response rating” value (wild oat (Avena fatua); Rate 125 g/ha, Postemergence) was 3. The “Plant response rating, Wild oats” value (wild oat (Avena fatua); Rate 125 g/ha, Preemergence) was 3, the “Plant response rating, Wild oats” value (wild oat (Avena fatua); Rate 250 g/ha, Postemergence) was 3 and the “Plant response rating, Wild oats” value (wild oat (Avena fatua); [16]) was 4. The “Plant response rating, Barnyardgrass” value [13, 17] was 2, the “Plant response rating, Barnyardgrass” value [13, 18] was 3 and the “Plant response rating, Barnyardgrass” value [13, 19] was 3. The “Plant response rating, Barnyardgrass” value [13, 20] was 4, the “Plant response rating, Ducksalad” value [14, 17] was 2 and the “Plant response rating, Ducksalad” value [14, 18] was 3. For the same compound, the “Plant response rating, Ducksalad” value [14, 19] was 4, the “Plant response rating, Ducksalad” value [14, 20] was 6 and the “Plant response rating, Rice” value (rice (Oryza sativa); [17]) was 1. The “Rice plant response rating” value (rice (Oryza sativa); [21]) was 1, the “Plant response rating, Rice” value (rice (Oryza sativa); [19]) was 2 and the “Plant response rating, Rice” value (rice (Oryza sativa); [20]) was 2. The “Plant response rating, S. Flatsedge” value [15, 17] was 2, the “S. Flatsedge plant response rating” value [15, 21] was 5 and the “Plant response rating, S. Flatsedge” value [15, 19] was 6. The “Plant response rating, S. Flatsedge” value [15, 20] was 7.
